{
  "source": "patent US6723364B1",
  "about": "“Fog treatment method using a liquid composition for treating fruits and vegetables and implementing device” (Xeda International, priority 1998, dated 2004)",
  "data": [
    {"test_system": "Penicillium expansum", "experiment": "Germination of the spores in vitro;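 also: ++ germination like control and 0 no spores germinated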", "format": "cell-based", "settings": "PE; x = 1280 μg/ml", "protocol": "(§1) The activity of eugenol and of isoeugenol on the germination of the spores was evaluated in vitro and compared with that of other terpenes.\n(§2) The procedure of Example 4 is used to do this, except that the concentration of eugenol and of isoeugenol was set at x μg/ml in the culture media used and that 50 μl of a suspension of spores, adjusted to 100,000 spores/ml, are deposited in each Petri dish.\n(§3) The same experiment was carried out starting with a terpene-free culture medium (control test).\n(§4) The results were evaluated using the following assessment criteria:\n(§5) +: considerable reduction in the level of spores germinated\n(§6) The results obtained for 3 different concentrations of terpenes in the culture medium, namely 40 μg/ml, 80 μg/ml and 1280 μg/ml, are listed in Tables 4, 5 and 6.", "values": [
      {"smiles": "C=C(C)C1CC=C(C)C(=O)C1", "note": "(stereo not shown) [CARVONE, carvone]", "germination of the spores": 0}
    ]},
    {"test_system": "Fusarium oxysporum", "experiment": "Germination of the spores in vitro;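 also: ++ germination like control and 0 no spores germinated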", "format": "cell-based", "settings": "FO; x = 40 μg/ml", "protocol": "as §1, §2, §3, §4, §5, §6", "values": [
      {"smiles": "C=C(C)C1CC=C(C)C(=O)C1", "note": "(stereo not shown) [CARVONE, carvone]", "germination of the spores": "+"}
    ]},
    {"test_system": "Fusarium oxysporum", "experiment": "Germination of the spores in vitro;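 also: ++ germination like control and 0 no spores germinated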", "format": "cell-based", "settings": "FO; x = 80 μg/ml", "protocol": "as §1, §2, §3, §4, §5, §6", "values": [
      {"smiles": "C=C(C)C1CC=C(C)C(=O)C1", "note": "(stereo not shown) [CARVONE, carvone]", "germination of the spores": 0}
    ]},
    {"test_system": "Fusarium oxysporum", "experiment": "Germination of the spores in vitro;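 also: ++ germination like control and 0 no spores germinated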", "format": "cell-based", "settings": "FO; x = 1280 μg/ml", "protocol": "as §1, §2, §3, §4, §5, §6", "values": [
      {"smiles": "C=C(C)C1CC=C(C)C(=O)C1", "note": "(stereo not shown) [CARVONE, carvone]", "germination of the spores": 0}
    ]},
    {"test_system": "Geocrichum candidum", "experiment": "Germination of the spores in vitro", "format": "cell-based", "settings": "GC; x = 40 μg/ml", "protocol": "as §1, §2, §3, §4, §5, §6", "values": [
      {"smiles": "C=C(C)C1CC=C(C)C(=O)C1", "note": "(stereo not shown) [CARVONE, carvone]", "germination of the spores": "+"}
    ]},
    {"test_system": "Geocrichum candidum", "experiment": "Germination of the spores in vitro", "format": "cell-based", "settings": "GC; x = 80 μg/ml", "protocol": "as §1, §2, §3, §4, §5, §6", "values": [
      {"smiles": "C=C(C)C1CC=C(C)C(=O)C1", "note": "(stereo not shown) [CARVONE, carvone]", "germination of the spores": 0}
    ]},
    {"test_system": "Geocrichum candidum", "experiment": "Germination of the spores in vitro", "format": "cell-based", "settings": "GC; x = 1280 μg/ml", "protocol": "as §1, §2, §3, §4, §5, §6", "values": [
      {"smiles": "C=C(C)C1CC=C(C)C(=O)C1", "note": "(stereo not shown) [CARVONE, carvone]", "germination of the spores": 0}
    ]},
    {"test_system": "Penicillium digitatum", "experiment": "Germination of the spores in vitro", "format": "cell-based", "settings": "PD; x = 40 μg/ml", "protocol": "as §1, §2, §3, §4, §5, §6", "values": [
      {"smiles": "C=C(C)C1CC=C(C)C(=O)C1", "note": "(stereo not shown) [CARVONE, carvone]", "germination of the spores": "+"}
    ]},
    {"test_system": "Penicillium digitatum", "experiment": "Germination of the spores in vitro", "format": "cell-based", "settings": "PD; x = 80 μg/ml", "protocol": "as §1, §2, §3, §4, §5, §6", "values": [
      {"smiles": "C=C(C)C1CC=C(C)C(=O)C1", "note": "(stereo not shown) [CARVONE, carvone]", "germination of the spores": 0}
    ]},
    {"test_system": "Penicillium digitatum", "experiment": "Germination of the spores in vitro", "format": "cell-based", "settings": "PD; x = 1280 μg/ml", "protocol": "as §1, §2, §3, §4, §5, §6", "values": [
      {"smiles": "C=C(C)C1CC=C(C)C(=O)C1", "note": "(stereo not shown) [CARVONE, carvone]", "germination of the spores": 0}
    ]},
    {"test_system": "Phlyctaena vagabonda (“Gloeosporium”)", "experiment": "Germination of the spores in vitro;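 also: ++ germination like control and 0 no spores germinated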", "format": "cell-based", "settings": "PV; x = 40 μg/ml", "protocol": "as §1, §2, §3, §4, §5, §6", "values": [
      {"smiles": "C=C(C)C1CC=C(C)C(=O)C1", "note": "(stereo not shown) [CARVONE, carvone]", "germination of the spores": "+"}
    ]},
    {"test_system": "Phlyctaena vagabonda (“Gloeosporium”)", "experiment": "Germination of the spores in vitro;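 also: ++ germination like control and 0 no spores germinated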", "format": "cell-based", "settings": "PV; x = 80 μg/ml", "protocol": "as §1, §2, §3, §4, §5, §6", "values": [
      {"smiles": "C=C(C)C1CC=C(C)C(=O)C1", "note": "(stereo not shown) [CARVONE, carvone]", "germination of the spores": 0}
    ]},
    {"test_system": "Phlyctaena vagabonda (“Gloeosporium”)", "experiment": "Germination of the spores in vitro;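 also: ++ germination like control and 0 no spores germinated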", "format": "cell-based", "settings": "PV; x = 1280 μg/ml", "protocol": "as §1, §2, §3, §4, §5, §6", "values": [
      {"smiles": "C=C(C)C1CC=C(C)C(=O)C1", "note": "(stereo not shown) [CARVONE, carvone]", "germination of the spores": 0}
    ]},
    {"test_system": "Botrytis cinerea", "experiment": "Germination of the spores in vitro", "format": "cell-based", "settings": "BC; x = 40 μg/ml", "protocol": "as §1, §2, §3, §4, §5, §6", "values": [
      {"smiles": "C=C(C)C1CC=C(C)C(=O)C1", "note": "(stereo not shown) [CARVONE, carvone]", "germination of the spores": "+"}
    ]},
    {"test_system": "Botrytis cinerea", "experiment": "Germination of the spores in vitro", "format": "cell-based", "settings": "BC; x = 80 μg/ml", "protocol": "as §1, §2, §3, §4, §5, §6", "values": [
      {"smiles": "C=C(C)C1CC=C(C)C(=O)C1", "note": "(stereo not shown) [CARVONE, carvone]", "germination of the spores": 0}
    ]},
    {"test_system": "Botrytis cinerea", "experiment": "Germination of the spores in vitro", "format": "cell-based", "settings": "BC; x = 1280 μg/ml", "protocol": "as §1, §2, §3, §4, §5, §6", "values": [
      {"smiles": "C=C(C)C1CC=C(C)C(=O)C1", "note": "(stereo not shown) [CARVONE, carvone]", "germination of the spores": 0}
    ]},
    {"test_system": "Escherichia coli", "experiment": "Bactericidal activity in vitro in LB agar medium", "format": "cell-based", "settings": "Escherichia sp., 37° C., read-out: MIC (concentration needed to completely inhibit the growth of the bacteria)", "protocol": "(§7) The bactericidal activity of eugenol and isoeugenol was evaluated in vitro and compared with that of other terpenes.\n(§8) The culture medium used is the following LB medium:\n(§9) Bactotryptone: 1% by weight\n(§10) Yeast extract: 0.5% by weight\n(§11) A suspension of bacteria at 10^6 CFU/ml was prepared in sterilized water from the LB medium. 200 μl of this bacterial suspension were added to 20 ml of presterilized LB culture medium brought to 55° C. The tested terpene is then added to the culture medium. After agitation, the medium is immediately divided among Petri dishes. The medium solidifies on cooling.\n(§12) Incubation is carried out at 28° C. when the bacterium is Erwinia carotovora and at 37° C. when the bacterium is Escherichia coli.\n(§13) The growth of mould in the culture medium is observed. The same experiment is carried out in the absence of terpene (control experiment).\n(§14) The protocol used is that described above.", "units": {"MIC": "µg/mL"}, "values": [
      {"smiles": "C=C(C)C1CC=C(C)C(=O)C1", "note": "(stereo not shown) [CARVONE, carvone]", "MIC": "320 to 640"}
    ]},
    {"test_system": "Erwinia carotovora", "experiment": "Bactericidal activity in vitro in LB agar medium", "format": "cell-based", "settings": "Concentration 20 μg/ml; 28° C.", "protocol": "as §7, §8, §9, §10, §11, §12, §13\n(§15) The results are evaluated using the following assessment scale:\n(§16) ++: mould growth identical to the control\n(§17) +: mould present with a marked reduction in growth with respect to the control\n(§18) : complete absence of growth.\n(§19) The results obtained for 3 different concentrations, namely 20, 80 and 320 μg/ml, in the case of the bacterium Erwinia carotovora are summarized in Table 7.\nas §14", "values": [
      {"smiles": "C=C(C)C1CC=C(C)C(=O)C1", "note": "(stereo not shown) [CARVONE, carvone]", "growth in the culture medium with respect to the control": "++"}
    ]},
    {"test_system": "Erwinia carotovora", "experiment": "Bactericidal activity in vitro in LB agar medium", "format": "cell-based", "settings": "Concentration 80 μg/ml; 28° C.", "protocol": "as §7, §8, §9, §10, §11, §12, §13, §15, §16, §17, §18, §19, §14", "values": [
      {"smiles": "C=C(C)C1CC=C(C)C(=O)C1", "note": "(stereo not shown) [CARVONE, carvone]", "growth in the culture medium with respect to the control": "+"}
    ]},
    {"test_system": "Erwinia carotovora", "experiment": "Bactericidal activity in vitro in LB agar medium", "format": "cell-based", "settings": "Concentration 320 μg/ml; 28° C.", "protocol": "as §7, §8, §9, §10, §11, §12, §13, §15, §16, §17, §18, §19, §14", "values": [
      {"smiles": "C=C(C)C1CC=C(C)C(=O)C1", "note": "(stereo not shown) [CARVONE, carvone]", "growth in the culture medium with respect to the control": "−"}
    ]},
    {"test_system": "Erwinia carotovora", "experiment": "Bactericidal activity in vitro in LB agar medium", "format": "cell-based", "settings": "Pectobacterium carotovorum; Erwinia sp.; 28° C.; read-out: MIC (concentration needed to completely inhibit the growth of the bacteria)", "protocol": "as §7, §8, §9, §10, §11, §12, §13, §15, §16, §17, §18, §19, §14", "units": {"MIC": "µg/mL"}, "values": [
      {"smiles": "C=C(C)C1CC=C(C)C(=O)C1", "note": "(stereo not shown) [CARVONE, carvone]", "MIC": "80 to 160"}
    ]},
    {"test_system": "species of fungus (AA, BC, FO, GC, GR, PD, PE, PV, PhP)", "experiment": "Fungicidal activity in vitro: total of inhibition grades over the nine species of fungus", "format": "cell-based", "settings": "sum of the grades over the nine fungi", "protocol": "The Cristomalt medium used for the evaluations of the fungicidal activities comprises 0.1% of Cristomalt (malt extract) and 0.2% of agar.\nThis culture medium is, after sterilization, brought to 55° C. The terpene compound tested is then introduced in the pure form into the culture medium under warm conditions. Immediately after agitating, the medium, enriched with the terpene product, is poured into Petri dishes (diameter 9 cm, filled with 20 ml of medium). The agar-comprising medium solidifies on cooling. The Petri dishes are then inoculated with plugs, with a diameter of 6 mm, withdrawn from the edge of a culture of the tested fungus, which culture is obtained on Cristomalt medium.\nInoculation is carried out at 22° C.\nThe mycelial growth was determined periodically (5 to 15 days, according to the species of fungus).\nThe results obtained are analysed simply by using the assessment scale illustrated in Table 2:\nThe results obtained have been expressed in Table 3 using the scale in Table 2.", "values": [
      {"smiles": "C=C(C)C1CC=C(C)C(=O)C1", "note": "(stereo not shown) [CARVONE, carvone]", "Total of the degrees of inhibition": 52}
    ]}
  ]
}
